Data reported in patent publication US20240173419A1, “CDK2 DEGRADERS AND USES THEREOF” (Kymera Therapeutics, Inc., priority 2022, published 2024).

Target: T1, CDK2 (Homo sapiens, UniProt P24941)
T1 construct: endogenous in cells; host or cells: MKN1 cells
Assay: CDK2 degradation in MKN1 cells (AlphaLISA)
Assay type: cell-based
Settings: 14 h incubation; for DC50: read-out: CDK2 degradation 14 h: Mean external-Abs DC50
In short: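 DC50 from four-parameter logistic fit of AlphaLISA CDK2 signal, corrected for no-cell wells. Lysates came from MKN1 cells, 2e4 per well, exposed 14 h at 37° C to compound at 0.001 nM-10 μM (1:5 series, 11 doses) in 0.1% DMSO.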

| SMILES | CDK2 degradation 14 h: Average Dmax % | DC50 |
| --- | --- | --- |
| CC1(O)CCN(c2nc(Nc3ccc(S(=O)(=O)NC4CCN(CC5CCN(c6ccc(C7CCC(=O)NC7=O)cc6F)CC5)CC4F)cc3F)ncc2C(F)(F)F)CC1 (centres unmarked) [I-1050] | A (A (>75% o)) | < 100 nM |
| CC1(O)CCN(c2nc(Nc3ccc(S(=O)(=O)NC4CCN(CC5CCN(c6ccc(C7CCC(=O)NC7=O)c(F)c6)CC5)CC4F)cc3F)ncc2C(F)(F)F)CC1 (centres unmarked) [I-1051] | A (A (>75% o)) | < 100 nM |
| Cc1cc(S(=O)(=O)NC2CCN(CC3CCN(c4ccc(C5CCC(=O)NC5=O)cc4F)CC3)CC2F)ccc1Nc1ncc(C(F)(F)F)c(N2CCCC(C)(O)C2)n1 (centres unmarked) [I-1054] | A (A (>75% o)) | < 100 nM |
| Cc1cc(S(=O)(=O)NC2CCN(CC3CCN(c4ccc(C5CCC(=O)NC5=O)cc4F)CC3)CC2F)ccc1Nc1ncc(C(F)(F)F)c(N2CCCC(C)(O)C2)n1 (centres unmarked) [I-1055] | A (A (>75% o)) | < 100 nM |
| CC1(O)CCCN(c2nc(Nc3ccc(S(=O)(=O)NC4CCN(CC5CCN(c6ccc(C7CCC(=O)NC7=O)c(F)c6)CC5)CC45CC5)cc3F)ncc2C(F)(F)F)C1 (centres unmarked) [I-1056] | A (A (>75% o)) | < 100 nM |
| CC1(O)CCCN(c2nc(Nc3ccc(S(=O)(=O)NC4CC5CCC(C4)N5CC4CCN(c5ccc(C6CCC(=O)NC6=O)c(F)c5)CC4)cc3F)ncc2C(F)(F)F)C1 (centres unmarked) [I-1057] | B (B (>50% -75%)) | 100 to 500 nM |
| CC1CC(NS(=O)(=O)c2ccc(Nc3ncc(C(F)(F)F)c(N4CCCC(C)(O)C4)n3)c(F)c2)CCN1CC1CCN(c2ccc(C3CCC(=O)NC3=O)c(F)c2)CC1 (centres unmarked) [I-1059] | A (A (>75% o)) | < 100 nM |
| CC1CC(NS(=O)(=O)c2ccc(Nc3ncc(C(F)(F)F)c(N4CCCC(C)(O)C4)n3)c(F)c2)CCN1CC1CCN(c2ccc(C3CCC(=O)NC3=O)c(F)c2)CC1 (centres unmarked) [I-1060] | A (A (>75% o)) | < 100 nM |
| CC1CN(CC2CCN(c3ccc(C4CCC(=O)NC4=O)c(F)c3)CC2)CCC1NS(=O)(=O)c1ccc(Nc2ncc(C(F)(F)F)c(N3CCCC(C)(O)C3)n2)c(F)c1 (centres unmarked) [I-1061] | A (A (>75% o)) | < 100 nM |

The remaining lines, values ahead:

| CDK2 degradation 14 h: Average Dmax % | DC50 | SMILES |
| --- | --- | --- |
| A (A (>75% o)) | < 100 nM | Cc1nc(S(=O)(=O)NC2CCC(CN3CCN(c4ccc(C5CCC(=O)NC5=O)c(Cl)c4)CC3)CC2)ccc1Nc1ncc(C(F)(F)F)c(N2CCCC(C)(O)C2)n1 (centres unmarked) [I-1048] |
| A (A (>75% o)) | < 100 nM | Cc1nc(S(=O)(=O)NC2CCC(CN3CCN(c4ccc(C5CCC(=O)NC5=O)c(F)c4)CC3)CC2)ccc1Nc1ncc(C(F)(F)F)c(N2CCCC(C)(O)C2)n1 (centres unmarked) [I-1049] |
| A (A (>75% o)) | < 100 nM | CC1CN(CC2CCN(c3ccc(C4CCC(=O)NC4=O)c(F)c3)CC2)CCC1NS(=O)(=O)c1ccc(Nc2ncc(C(F)(F)F)c(N3CCCC(C)(O)C3)n2)c(F)c1 (centres unmarked) [I-1062] |
| A (A (>75% o)) | < 100 nM | CC1CN(CC2CCN(c3ccc(C4CCC(=O)NC4=O)c(F)c3)CC2)CCC1NS(=O)(=O)c1ccc(Nc2ncc(C(F)(F)F)c(N3CCCC(C)(O)C3)n2)c(F)c1 (centres unmarked) [I-1063] |
| A (A (>75% o)) | < 100 nM | CC1(O)CCCN(c2nc(Nc3ccc(S(=O)(=O)NC4CCC5(CC4)CN(CC4CCN(c6ccc(C7CCC(=O)NC7=O)c(F)c6)CC4)C5)cc3F)ncc2C(F)(F)F)C1 (centres unmarked) [I-1064] |
| A (A (>75% o)) | < 100 nM | Cc1nn(C2CCC(=O)NC2=O)c2ccc(N3CCN(CC4CCC(NS(=O)(=O)c5ccc(Nc6ncc(C(F)(F)F)c(N7CCCC(C)(O)C7)n6)c(F)c5)CC4)CC3)cc12 (centres unmarked) [I-1065] |
| A (A (>75% o)) | < 100 nM | Cc1cc(S(=O)(=O)NC2CCC(CN3CCN(c4ccc(C5CCC(=O)NC5=O)c(F)c4)CC3)CC2)ncc1Nc1ncc(C(F)(F)F)c(N2CCCC(C)(O)C2)n1 (centres unmarked) [I-1066] |
